Tested on: corn plants
Assay: clethodim application to corn plants with tank-mix adjuvants, % inhibition versus untreated control plants
Format: in vivo
Details: clethodim 1 fluid ounce/acre without tank-mix adjuvants, 7 days following treatment
Source text: Various surfactants are used as adjuvants for agrochemicals to enhance deposition and penetration through plant surfaces. Two commercial tank-mix adjuvant systems that may be used for comparison are PRIME OIL® and SUPERB® HC (available from Winfield Solutions, LLC of Shoreview, Minn.), which are high surfactant oil concentrates. Representative studied were based on delivery of clethodim at 1 fluid ounce/acre, a commercial herbicide that inhibits growth of certain plants. A measure of effectiveness was the % inhibition (with 0% being no inhibition) compared to untreated control plants. Photographs (a)-(e) of FIG. 11 provide images of corn plants (corn being a common contaminant crop in soybean fields) treated with different formulations 7 days after treatment. Comparatively good results are obtained with clethodim and KLPEG900. Lignin adjuvant activity appeared to be higher at 0.05% v/v that 0.1% v/v.
FIG. 12 illustrates a graph wherein % inhibition is plotted for the different formulations 7 days following treatment.

Compound: CCSC(C)CC1CC(=O)C(/C(CC)=N/OC/C=C/Cl)=C(O)C1 (stereo not shown) [Clethodim, clethodim]
- % inhibition: 54.4%

— patent US20180078916A1, “LIGNIN-BASED SURFACTANTS” (CARNEGIE MELLON UNIVERSITY, priority 2015, published 2018)
